In patent US20250195513A1, “DEGRADATION OF IRAK4 BY CONJUGATION OF IRAK4 INHIBITORS WITH E3 LIGASE LIGAND AND METHODS OF USE” (BeiGene, Ltd., priority 2022, published 2025):

What was measured:
[1] = target: T1, IRAK4 (Homo sapiens, UniProt Q9NWZ3); assay: IRAK4 Degradation Assay with Human Serum (Karpas299, HTRF/TR-FRET); format: cell-based; settings: Karpas-299 in human serum, 24 hrs treatment; for DC50: read-out: IRAK4 degradtion with human serum assay DC50; for Dmax: read-out: IRAK4 degradtion with human serum assay Dmax (%)
T1 construct: endogenous in cells; host or cells: Karpas299
T1 sequence (Q9NWZ3 1-460): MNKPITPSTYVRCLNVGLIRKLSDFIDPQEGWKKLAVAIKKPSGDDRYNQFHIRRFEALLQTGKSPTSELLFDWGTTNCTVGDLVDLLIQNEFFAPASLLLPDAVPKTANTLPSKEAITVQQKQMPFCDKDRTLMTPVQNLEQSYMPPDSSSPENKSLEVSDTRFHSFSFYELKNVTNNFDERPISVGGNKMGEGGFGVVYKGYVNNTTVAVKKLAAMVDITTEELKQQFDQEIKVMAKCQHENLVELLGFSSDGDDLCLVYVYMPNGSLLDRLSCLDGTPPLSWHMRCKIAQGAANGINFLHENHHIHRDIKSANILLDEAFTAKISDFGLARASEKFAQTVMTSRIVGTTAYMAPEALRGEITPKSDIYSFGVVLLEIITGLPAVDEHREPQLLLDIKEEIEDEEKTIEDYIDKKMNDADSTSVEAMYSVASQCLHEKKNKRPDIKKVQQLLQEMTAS
Procedure: IRAK4 degradation was measured using a TR-FRET-based method (Degorce, François, et al. Current chemical genomics. 2009, 3: 22). Karpas299 resuspended in Human serum AB (GEMINI, 100-512) were seeded into 96-well plates at the density of 0.2 million cells per well and then treated with a series dilution of compounds. After 24 hrs treatment, cells were pelleted via centrifugation and washed with PBS, add 40 μL lysis buffer (Cisbio) to each well after removal of the supernatant. Plates were then incubated at room temperature with shaking for 30 minutes. A total of 16 μL of cell lysates from each well of a 96-well plate was transferred to a 384-well white assay plate. IRAK4 level was quantitated using the HTRF kit as described by the manufacturer manual (Cisbio). FRET signals were measured using a PHERAstar FSX reader (BMG Labtech).
After treatment, add HTRF lysis buffer to each well; seal the plate and incubate 1 hour at room temperature on a plate shaker; Once the cells are lysed, 16 μL of cell lysate are transferred to a PE 384-well HTRF detection plate; 4 μL of pre-mixed HTRF antibodies are added to each well; Cover the plate with a plate sealer, spin 1000 rpm for 1 min, Incubate overnight at room temperature; Read on BMG PheraStar with HTRF protocol (337 nm-665 nm-620 nm).
The inhibition (degradation) percentage of the compound was calculated by the following equation: […]
The IC50 (DC50) value of a compound can be obtained by fitting the following equation
Wherein, X and Y are known values, and IC50, Hillslope, Top and Bottom are the parameters obtained by fitting with software. Y is the inhibition percentage (calculated from the equation), X is the concentration of the compound; IC50 is the concentration of the compound when the […] is reached. The smaller the IC50 value is, the stronger the inhibitory ability of the compound is. Vice versa, the higher the IC50 value is, the weaker the ability the inhibitory ability of the compound is; Hillslope represents the slope of the fitted curve, generally around 1 *; Bottom represents the minimum value of the curve obtained by data fitting, which is generally 0%±20%; Top represents the maximum value of the curve obtained by data fitting, which is generally 100%±20%. The experimental data were fitted by calculating and analyzing with Dotmatics data analysis software.

[2] = target: T1, IRAK4; assay: IRAK4 Degradation Assay (Karpas299, HTRF/TR-FRET); format: cell-based; settings: Karpas-299 cells; for Dmax: maximum percentage of degradation
In short: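 Compound potency as DC50 (IC50) came from four-parameter fits of percent IRAK4 degradation. IRAK4 was measured by HTRF (665/620 nm) in lysates of Karpas299 cells seeded at 0.2 million per well. Cells had been treated with compound dilutions for 5 or 24 h.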

[3] = 24 h treatment, read-out: IRAK4 in Karpas-299 (24 h) Dmax (%)
[4] = 24 h treatment, read-out: IRAK4 in Karpas-299 (24 h) DC50
[5] = 5 h treatment, read-out: IRAK4 in Karpas-299 (5 h) Dmax (%)
[6] = 5 h treatment, read-out: IRAK4 in Karpas-299 (5 h) DC50

| Structure (SMILES) | DC50 [1] | Dmax [1] | Dmax [2, 3] | DC50 [2, 4] | Dmax [2, 5] | DC50 [2, 6] |
| --- | --- | --- | --- | --- | --- | --- |
| CC(C)(O)c1cc2nn([C@H]3CC[C@H](N4CCN([C@@H]5CCN(c6cc(F)c(C7CCC(=O)NC7=O)c(F)c6)C5)CC4)CC3)cc2cc1NC(=O)c1ccc2cc(C#N)cnn12 (stereo partly drawn) [Example 396, 3-cyano-N-(2-((1R,4r)-4-(4-((3R)-1-(4-(2,6-dioxopiperidin-3-yl)-3,5-difluorophenyl)pyrrolidin-3-yl)piperazin-1-yl)cyclohexyl)-6-(2-hydroxypropan-2-yl)-2H-indazol-5-yl)pyrrolo[1,2-b]pyridazine-7-carboxamide] | 34 nM | 95% | 98% | 0.8 nM |  |  |
| C[C@@H]1CN([C@H]2C[C@H](c3cc(F)c([C@H]4CCC(=O)NC4=O)c(F)c3)C2)CCN1[C@H]1CC[C@H](n2cc3cc(NC(=O)c4ccc5cc(C#N)cnn45)c(C(C)(C)O)cc3n2)CC1 [Example 366, 3-cyano-N-(2-((1R,4r)-4-((R)-4-((1R,3R)-3-(4-((R)-2,6-dioxopiperidin-3-yl)-3,5-difluorophenyl)cyclobutyl)-2-methylpiperazin-1-yl)cyclohexyl)-6-(2-hydroxypropan-2-yl)-2H-indazol-5-yl)pyrrolo[1,2-b]pyridazine-7-carboxamide] | 14 nM | 97% | 98% | 1.4 nM |  |  |
| COC[C@@H]1CN(C2CCN(c3ccc(C4CCC(=O)NC4=O)nc3C)CC2)CCN1[C@H]1CC[C@H](n2cc3cc(NC(=O)c4ccc5cc(C#N)cnn45)c(C(C)(C)O)cc3n2)CC1 (stereo partly drawn) [Example 423, 3-cyano-N-(2-((1S,4r)-4-((2S)-4-(1-(6-(2,6-dioxopiperidin-3-yl)-2-methylpyridin-3-yl)piperidin-4-yl)-2-(methoxymethyl)piperazin-1-yl)cyclohexyl)-6-(2-hydroxypropan-2-yl)-2H-indazol-5-yl)pyrrolo[1,2-b]pyridazine-7-carboxamide] | 3 nM | 96% | 98% | 1.1 nM |  |  |
| CC(C)(O)c1cc2nn([C@H]3CC[C@H](N4CCN([C@H]5C[C@@H](c6ccc(N[C@H]7CCC(=O)NC7=O)cc6)C5)CC4)CC3)cc2cc1NC(=O)c1ccc2cc(C#N)cnn12 [Example 273, 3-cyano-N-(2-((1R,4r)-4-(4-((1R,3S)-3-(4-(((S)-2,6-dioxopiperidin-3-yl)amino)phenyl)cyclobutyl)piperazin-1-yl)cyclohexyl)-6-(2-hydroxypropan-2-yl)-2H-indazol-5-yl)pyrrolo[12-b]pyridazine-7-carboxamide] | 9.3 nM | 98% | 95% | 5 nM |  |  |
| Cc1nc(C2CCC(=O)NC2=O)ccc1N1CCC(N2CCN(C34CCC(n5cc6cc(NC(=O)c7ccc8cc(C#N)cnn78)c(C(C)(C)O)cc6n5)(CC3)CC4)CC2)CC1 (stereo not drawn) [Example 416, 3-cyano-N-(2-(4-(4-(1-(6-(2,6-dioxopiperidin-3-yl)-2-methylpyridin-3-yl)piperidin-4-yl)piperazin-1-yl)bicyclo[2.2.2]octan-1-yl)-6-(2-hydroxypropan-2-yl)-2H-indazol-5-yl)pyrrolo[1,2-b]pyridazine-7-carboxamide] | 9.2 nM | 99% | 98% | 1.9 nM |  |  |
| CC(C)(O)c1cc2nn(C34CC(N5CCN(CCC6CCN(c7cc(F)c([C@H]8CCC(=O)NC8=O)c(F)c7)CC6)CC5)(C3)C4)cc2cc1NC(=O)c1ccc2cc(C#N)cnn12 [Example 349, (R)-3-cyano-N-(2-(3-(4-(2-(1-(4-(2,6-dioxopiperidin-3-yl)-3,5-difluorophenyl)piperidin-4-yl)ethyl)piperazin-1-yl)bicyclo[1.1.1]pentan-1-yl)-6-(2-hydroxypropan-2-yl)-2H-indazol-5-yl)pyrrolo[1,2-b]pyridazine-7-carboxamide] | 7.7 nM | 98% | 97% | 2.4 nM | 94% | 3.9 nM |
| COC[C@H]1CN([C@H]2CC[C@H](n3cc4cc(NC(=O)c5ccc6cc(C#N)cnn56)c(C(C)(C)O)cc4n3)CC2)CCN1CC1CCN(c2ccc3c(c2)CN(C2CCC(=O)NC2=O)C3=O)CC1 (stereo partly drawn) [Example 402, 3-cyano-N-(2-((1R,4r)-4-((3R)-4-((1-(2-(2,6-dioxopiperidin-3-yl)-1-oxoisoindolin-5-yl)piperidin-4-yl)methyl)-3-(methoxymethyl)piperazin-1-yl)cyclohexyl)-6-(2-hydroxypropan-2-yl)-2H-indazol-5-yl)pyrrolo[1,2-b]pyridazine-7-carboxamide] | 5.5 nM | 87% | 95% | 0.9 nM |  |  |
| CC(C)(O)c1cc2nn([C@H]3CC[C@H](N4CCN(C5CCN(c6ccc(C7CCC(=O)NC7=O)nc6)CC5)CC4)CC3)cc2cc1NC(=O)c1ccc2cc(C#N)cnn12 (stereo partly drawn) [Example 254, 3-cyano-N-(2-((1r,4r)-4-(4-(1-(6-(2,6-dioxopiperidin-3-yl)pyridin-3-yl)piperidin-4-yl)piperazin-1-yl)cyclohexyl)-6-(2-hydroxypropan-2-yl)-2H-indazol-5-yl)pyrrolo[1,2-b]pyridazine-7-carboxamide] | 25 nM | 98% | 96% | 4.4 nM | 97% | 6.7 nM |
| C[C@@H]1CN([C@H]2CC[C@H](n3cc4cc(NC(=O)c5ccc6cc(C#N)cnn56)c(C(C)(C)O)cc4n3)CC2)CCN1CC1CN(c2cc(F)c([C@H]3CCC(=O)NC3=O)c(F)c2)C1 [Example 310, 3-cyano-N-(2-((1R,4r)-4-((R)-4-((1-(4-((R)-2,6-dioxopiperidin-3-yl)-3,5-difluorophenyl)azetidin-3-yl)methyl)-3-methylpiperazin-1-yl)cyclohexyl)-6-(2-hydroxypropan-2-yl)-2H-indazol-5-yl)pyrrolo[1,2-b]pyridazine-7-carboxamide] | 3.2 nM | 102% | 98% | 0.6 nM |  |  |
| COC[C@@H]1CN(C[C@@H]2CCN(c3cc(F)c([C@H]4CCC(=O)NC4=O)c(F)c3)C2)CCN1[C@H]1CC[C@H](n2cc3cc(NC(=O)c4ccc5cc(C#N)cnn45)c(C(C)(C)O)cc3n2)CC1 [Example 388, 3-cyano-N-(2-((1S,4r)-4-((S)-4-(((S)-1-(4-((R)-2,6-dioxopiperidin-3-yl)-3,5-difluorophenyl)pyrrolidin-3-yl)methyl)-2-(methoxymethyl)piperazin-1-yl)cyclohexyl)-6-(2-hydroxypropan-2-yl)-2H-indazol-5-yl)pyrrolo[1,2-b]pyridazine-7-carboxamide] | 12 nM | 98% | 97% | 1.1 nM |  |  |
| CC(C)(O)c1cc2nn([C@H]3CC[C@H](N4CCN([C@H]5CCN(c6cc(F)c(C7CCC(=O)NC7=O)c(F)c6)C5)CC4)CC3)cc2cc1NC(=O)c1ccc2cc(C#N)cnn12 (stereo partly drawn) [Example 395, 3-cyano-N-(2-((1S,4r)-4-(4-((3S)-1-(4-(2,6-dioxopiperidin-3-yl)-3,5-difluorophenyl)pyrrolidin-3-yl)piperazin-1-yl)cyclohexyl)-6-(2-hydroxypropan-2-yl)-2H-indazol-5-yl)pyrrolo[1,2-b]pyridazine-7-carboxamide] | 21 nM | 99% | 97% | 0.8 nM |  |  |
